Experimental data published in PMC7746945 (Neuro-Oncology, 2020).

Legend:
Assay in all cases: Clonogenic survival radiosensitization assay
Type in all cases: cell-based, human
UVW cells = details: MGMT methylated, 1–5 Gy
Method: (§1) Canine kidney epithelial cells, stably expressing human MDR1 cDNA (Madin-Darby canine kidney type II [MDCKII]–MDR1 cells) or empty vector (MDCKII control), were used to model the intact BBB and determine permeability coefficients of (^14C)-olaparib in the presence of ketoconazole (25 μM). Whole body autoradiography was performed on male pigmented rats after single oral administration of [^14C]-olaparib (15 mg/kg; 5 MBq/kg). For autoradiography studies, animal care and experiments were carried out in accordance with AstraZeneca guidelines, which comply with UK standards. […] Xenograft experiments were performed under the relevant UK Home Office Project Licence and carried out with ethical approval from the University of Glasgow under the Animal (Scientific Procedures) Act 1986 and the EU directive 2010. Mice were maintained in individually ventilated cages with environmental enrichment and following the guidelines of ARRIVE (Animal Research: Reporting of In Vivo Experiments). […] Ratiometric t-test analysis determined SER confidence intervals and P-values. Further details are available in the Supplementary Material.
(§2) Visible colonies containing at least 50 cells were counted 14–21 days after treatment and surviving fraction calculated. The linear quadratic model was fitted using maximum likelihood estimation and integrated to determine the mean inactivation dose (MID) for each experimental condition.

T98G cells = details: MGMT unmethylated, 1–5 Gy
Method: as §1, §2

R10 cells = details: R10, MGMT methylated, 1–5 Gy
Method: as §1, §2

G7 cells = details: G7, MGMT methylated, 1–5 Gy
Method: as §1, §2

SMILES: O=C(c1cc(Cc2n[nH]c(=O)c3ccccc23)ccc1F)N1CCN(C(=O)C2CC2)CC1 [olaparib, 4-[3-(4-cyclopropanecarbonylpiperazine-1-carbonyl)-4-fluorobenzyl]-2H-phthalazin-1-one]
- SER (95% CI) 100nM (UVW cells; olaparib 100 nM): 1.478 (1.28 - 1.726)
- SER (95% CI) 500nM (UVW cells; olaparib 500 nM): 1.695 (1.407 - 2.098)
- SER (95% CI) 100nM (T98G cells; olaparib 100 nM): 1.42 (1.128 - 1.883)
- SER (95% CI) 500nM (T98G cells; olaparib 500 nM): 1.584 (1.464 - 1.71)
- SER (95% CI) 100nM (R10 cells; olaparib 100 nM): 1.266 (0.991 - 1.565)
- SER (95% CI) 500nM (R10 cells; olaparib 500 nM): 1.281 (0.966 - 1.721)
- SER (95% CI) 100nM (G7 cells; olaparib 100 nM): 1.105 (1.018 - 1.200)
- SER (95% CI) 500nM (G7 cells; olaparib 500 nM): 1.188 (1.029 - 1.390)
